Source: PubChem BioAssay (NCI)
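Growth conditions: 96-well plates. Treatment: test compound, 48 hours, 5 concentrations. Analysis: linear interpolation between bracketing concentrations; unreached endpoints set to highest concentration. GI50 is the concentration that inhibits growth by half. At the TGI there is no net growth.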

Columns and labels:
Experiment in all cases: NCI-60 cell line screen, 48 h
[1] = tested on: BT-549 breast
[2] = tested on: PC-3 prostate
[3] = tested on: HOP-92 NSCLC
[4] = tested on: MOLT-4 leukemia
[5] = tested on: UACC-257 melanoma
[6] = tested on: HCT-116 colon
[7] = tested on: LOX IMVI melanoma
[8] = tested on: NCI-H460 lung
[9] = tested on: COLO 205 colon
[10] = tested on: M14 melanoma

## Cn1cc(C2=C(c3cccc4ccccc34)C(=O)NC2=O)c2ccccc21
[1]
  GI50: 7.49 µM
  TGI: 19.7 µM
[2]
  GI50: 7.51 µM
  TGI: > 25 µM
[3]
  GI50: 8.46 µM
  TGI: 24.3 µM
[4]
  GI50: 7.9 µM
  TGI: > 22.5 µM
[5]
  GI50: 12.1 µM
  TGI: > 25 µM
[6]
  GI50: 5.92 µM
  TGI: > 16.7 µM
[7]
  GI50: 6.96 µM
  TGI: > 25 µM
[8]
  GI50: 8.2 µM
  TGI: > 25 µM
[9]
  GI50: 7.23 µM
  TGI: > 22.9 µM
[10]
  GI50: 11.5 µM
  TGI: > 25 µM

## O=C1NN(c2ccc(C(=O)O)cc2)C(=O)/C1=C\c1ccc([N+](=O)[O-])o1
[1]
  GI50: > 100 µM
  TGI: > 100 µM
[2]
  GI50: > 100 µM
  TGI: > 100 µM
[3]
  GI50: 29 µM
  TGI: 74.8 µM
[4]
  GI50: 33.4 µM
  TGI: > 100 µM
[5]
  GI50: > 100 µM
  TGI: > 100 µM
[6]
  GI50: 20.8 µM
  TGI: 42.8 µM
[7]
  GI50: 11.1 µM
  TGI: 31.2 µM
[8]
  GI50: > 100 µM
  TGI: > 100 µM
[9]
  GI50: 20.9 µM
  TGI: 38.8 µM
[10]
  GI50: 28.6 µM
  TGI: 88 µM

## Cc1nn(-c2nc3ccccc3s2)c(C)c1Oc1ccccc1O
[1]
  GI50: 12 µM
  TGI: 25.5 µM
[2]
  GI50: 6.58 µM
  TGI: > 100 µM
[3]
  GI50: 0.162 µM
  TGI: 16.6 µM
[4]
  GI50: 2.56 µM
  TGI: 12.5 µM
[5]
  GI50: 3.64 µM
  TGI: 14.7 µM
[6]
  GI50: 2.03 µM
  TGI: 15.5 µM
[7]
  GI50: 2.87 µM
  TGI: 16.9 µM
[8]
  GI50: 0.654 µM
  TGI: 16.3 µM
[9]
  GI50: 15.7 µM
  TGI: 31.1 µM
[10]
  GI50: 11.8 µM
  TGI: 24.8 µM

## CCCN(CCC)C(=O)C1=Cc2ccc(-c3ccc(C(=O)N4CCCC4)cc3)cc2N=C(N)C1
[1]
  GI50: 12.8 µM
  TGI: 33.3 µM
[2]
  GI50: 8.56 µM
  TGI: > 95.4 µM
[3]
  GI50: 7.99 µM
  TGI: 54.3 µM
[4]
  GI50: 10.5 µM
  TGI: 64.3 µM
[5]
  GI50: 9.03 µM
  TGI: 22.3 µM
[6]
  GI50: 4.55 µM
  TGI: 19.2 µM
[7]
  GI50: 9.48 µM
  TGI: 24.2 µM
[8]
  GI50: 4.46 µM
  TGI: 17.4 µM
[9]
  GI50: 4.26 µM
  TGI: 16.3 µM
[10]
  GI50: 5.66 µM
  TGI: 22.7 µM

## COc1cc(-c2nc(Nc3nc4ccccc4[nH]3)nc(N)c2C#N)cc(OC)c1OC
[1]
  GI50: 0.857 µM
  TGI: 37.1 µM
[2]
  GI50: 1.65 µM
  TGI: > 93.3 µM
[3]
  GI50: 0.341 µM
  TGI: 31.8 µM
[4]
  GI50: 18.2 µM
  TGI: > 100 µM
[5]
  GI50: > 100 µM
  TGI: > 100 µM
[6]
  GI50: 4.52 µM
  TGI: 25.8 µM
[7]
  GI50: 6.37 µM
  TGI: 41.4 µM
[8]
  GI50: 1.77 µM
  TGI: > 54.2 µM
[9]
  GI50: 1.74 µM
  TGI: > 50.7 µM
[10]
  GI50: 2.34 µM
  TGI: 36.5 µM

## Cc1cc2c(cc1Cl)SC1=CC(=O)N(c3ccccc3)C1=NS2(=O)=O
[1]
  GI50: 30 µM
  TGI: 65.3 µM
[2]
  GI50: 37.4 µM
  TGI: > 100 µM
[3]
  GI50: 34.3 µM
  TGI: > 100 µM
[4]
  GI50: 31.7 µM
  TGI: > 100 µM
[5]
  GI50: 51.5 µM
  TGI: > 100 µM
[6]
  GI50: 30.9 µM
  TGI: > 100 µM
[7]
  GI50: 26.2 µM
  TGI: 61.1 µM
[8]
  GI50: 59.5 µM
  TGI: > 100 µM
[9]
  GI50: 26.4 µM
  TGI: 67 µM
[10]
  GI50: 21 µM
  TGI: 42.8 µM

## COc1cc(C(=O)c2ccc3c(c2)OCO3)cc(OC)c1OC
[1]
  GI50: 7.09 µM
  TGI: > 100 µM
[2]
  GI50: 4.12 µM
  TGI: > 100 µM
[3]
  GI50: 2.48 µM
  TGI: > 100 µM
[4]
  GI50: 2.72 µM
  TGI: > 75.1 µM
[5]
  GI50: > 100 µM
  TGI: > 100 µM
[6]
  GI50: 2.08 µM
  TGI: > 100 µM
[7]
  GI50: 6.69 µM
  TGI: > 100 µM
[8]
  GI50: 2.55 µM
  TGI: > 100 µM
[9]
  GI50: 1.37 µM
  TGI: 6.2 µM
[10]
  GI50: 1.2 µM
  TGI: > 100 µM

## Cn1ccnc1C(=O)/C=C/c1ccc(C(=O)Nc2ccc(Cl)cc2)cc1
[1]
  GI50: 0.958 µM
  TGI: 7.72 µM
[2]
  GI50: 0.951 µM
  TGI: 19 µM
[3]
  GI50: 1.14 µM
  TGI: 27 µM
[4]
  GI50: 0.81 µM
  TGI: 2.43 µM
[5]
  GI50: 2.48 µM
  TGI: > 33.3 µM
[6]
  GI50: 0.514 µM
  TGI: 1.08 µM
[7]
  GI50: 0.686 µM
  TGI: 1.56 µM
[8]
  GI50: 0.747 µM
  TGI: 2 µM
[9]
  GI50: 1.03 µM
  TGI: > 33.3 µM
[10]
  GI50: 0.968 µM
  TGI: 4.96 µM

## COC(=O)Nc1nc2ccc(Oc3ccc(NC(=O)Nc4cccc(C(=O)O)c4)cc3)cc2[nH]1
[1]
  GI50: 14.8 µM
  TGI: > 25 µM
[2]
  GI50: 8.44 µM
  TGI: > 25 µM
[3]
  GI50: > 25 µM
  TGI: > 25 µM
[4]
  GI50: 9.99 µM
  TGI: > 25 µM
[5]
  GI50: > 22.2 µM
  TGI: > 25 µM
[6]
  GI50: 8.82 µM
  TGI: > 25 µM
[7]
  GI50: > 14.6 µM
  TGI: > 25 µM
[8]
  GI50: 7.21 µM
  TGI: > 25 µM
[9]
  GI50: 6.21 µM
  TGI: > 16.5 µM
[10]
  GI50: 6.75 µM
  TGI: > 25 µM

## CC1=C[C@H]2c3c(c(O)c(O)c4oc5c(C)cccc5c(=O)c34)[C@H](c3cc(O)c(O)c4oc5c(C)cccc5c(=O)c34)[C@H]2C(C)(C)C1
[1]
  GI50: 1.9 µM
  TGI: 5.04 µM
[2]
  GI50: 1.51 µM
  TGI: 10.2 µM
[3]
  GI50: 2.39 µM
  TGI: 6.69 µM
[4]
  GI50: 1.06 µM
  TGI: 31 µM
[5]
  GI50: 2.54 µM
  TGI: 8.34 µM
[6]
  GI50: 0.899 µM
  TGI: 2.69 µM
[7]
  GI50: 0.966 µM
  TGI: 2.22 µM
[8]
  GI50: 0.825 µM
  TGI: 3.02 µM
[9]
  GI50: 2.41 µM
  TGI: 6.8 µM
[10]
  GI50: 1.52 µM
  TGI: 5.87 µM

## O=[N+]([O-])c1ccc(Br)c([N+](=O)[O-])c1
[1]
  GI50: 5.32 µM
  TGI: 10.9 µM
[2]
  GI50: 1.94 µM
  TGI: 3.93 µM
[3]
  GI50: 1.94 µM
  TGI: 4.02 µM
[4]
  GI50: 2.52 µM
  TGI: 6.71 µM
[5]
  GI50: 1.86 µM
  TGI: 3.37 µM
[6]
  GI50: 2.09 µM
  TGI: 5.02 µM
[7]
  GI50: 1.67 µM
  TGI: 3.38 µM
[8]
  GI50: 2.56 µM
  TGI: 8.72 µM
[9]
  GI50: 1.72 µM
  TGI: 3.32 µM
[10]
  GI50: 1.74 µM
  TGI: 3.27 µM

## Cc1cc(N2CCCCC2)nc(N(CCCNc2ccnc3cc(Cl)ccc23)Cc2ccco2)n1
[1]
  GI50: 2.65 µM
  TGI: 8.54 µM
[2]
  GI50: 1.98 µM
  TGI: 5.61 µM
[3]
  GI50: 1.38 µM
  TGI: 3.95 µM
[4]
  GI50: 2.45 µM
  TGI: 7.18 µM
[5]
  GI50: 2.35 µM
  TGI: 5.21 µM
[6]
  GI50: 1.15 µM
  TGI: 3.28 µM
[7]
  GI50: 1.24 µM
  TGI: 2.65 µM
[8]
  GI50: 1.8 µM
  TGI: 4.23 µM
[9]
  GI50: 1.67 µM
  TGI: 3.53 µM
[10]
  GI50: 1.64 µM
  TGI: 3.4 µM
